Converted amounts (≈) assume the structure as drawn. Where a name gives a salt, the structure may show the parent alone. Read-outs that look alike come from different tables or passages of the source. Blank lines part the entries; values can stand above or below the molecule they belong to.
Key:
C6 cells = assay: In vitro tumor inhibition: anchorage-dependent C6 cell growth assay (sulforhodamine B); assay type: cell-based; settings: for IC50: Rattus norvegicus, C6 cells, 2000 cells/well, 4 days, 37° C., SRB stain
Protocol: The assay measures protein content of acid-fixed cells using the counterion binding dye sulforhodamine B (SRB, Sigma).
AA10 and AA12 were solubilized in DMSO (Sigma, cell culture grade), and AA14 was dissolved in PBS (pH 7.4), the compounds were diluted into appropriate growth medium at two-fold the desired final assay concentration.
Compound (100 μL) was added to 96-well plates containing attached cellular monolayers C6 cells (2000 cells/well in 100 μL). After 4 days (37° C., 5% CO2) the monolayers were washed 3 times with PBS and fixed with 200 μL ice-cold 10% trichloroacetic acid (TCA) (Fisher Scientific), and kept at 4° C. for 60 minutes. The TCA was removed and the fixed monolayers were washed 5 times with tap water and allowed to dry completely at room temperature on absorbent paper. The cellular protein was stained for 10 min with 100 μL 0.4% SRB dissolved in 1% acetic acid. After 5 washes with tap water, the dye was solubilized in 10 mM Tris base (100 μL per well) and absorbance read at 570 nm on a Dynatech plate reader model MR5000. Growth inhibition data are expressed as aL percentage of absorbance detected in control wells which were treated with 0.4% DMSO or PBS alone. […] IC50 values were determined using a four parameter curve fit function.

Solubility of compounds = assay type: physicochemical
mice (BALB/c) = assay: Toxicity studies (LD50, LD10, organ damage) in mice; assay type: in vivo
Protocol: (§1) Toxicity studies were carried out in animal models for AA10, AA12 and AA14. AA10 and AA12 were solubilized in DMSO and AA14 was dissolved in PBS (pH 7.4). The dosage resulting in a 50% mortality rate (LD50) and a 10% mortality rate (LD10) was determined as described below.
(§2) Five mice (BALB/c) were treated with different concentrations of compound. […] The LD50 was calculated from a plot of % mortality versus dose (log M) using a four parameter logistic equation.
(§3) At the end of the experiment an animal from each study administered with 100 mg/kg of compound was sacrificed and pathologically analyzed for organ damage.

[1] = as above; assay type: in vivo; settings: mouse, in vivo
Protocol: as §1, §2, §3

C6 glioma cells = assay: In vivo tumor inhibition: subcutaneous Xenograft model with C6 glioma cells in mice; parameters: species or system mice (BALB/c, nu/nu); settings: for Inhibition of tumor growth (FIGS. 1, 2, and 3): IP injection, 15 mg/kg/day, AA10 and AA12 in DMSO, AA14 in PBS
Protocol: In vivo tumor inhibition was measured using a subcutaneous Xenograft model.
C6 cells were maintained in Ham's F10 supplemented with 10% fetal bovine serum (FBS) and 2 mM glutamine (GLN). Cells were harvested at or near confluence with 0.05% Trypsin-EDTA and pelleted at 450×g for 10 min. Pellets were resuspended in sterile PBS or media (without FBS) to a particular concentration and the cells were implanted into the hindflank of mice. Tumor growth was measured over 3 to 6 weeks using venier calipers. Tumor volumes were calculated as a product of length x width x height unless otherwise indicated. AA10 and AA12 were solubilized in 50-100 μL vehicle (DMSO) while AA14 was dissolved in PBS (pH 7.4). The compounds were delivered by IP injection at 15 mg/kg/day.
The compound was dissolved in phosphate buffered saline and the animals were treated with 30 mg/kg/day and 50 mg/kg/day.

[2] = Stability compared with leflunomide; assay type: physicochemical
[3] = system: autoimmune animal diseases; settings: Bartlett R. R. et al., Agents and Actions 32:10-21 (1991); cited from earlier work
[4] = organic solvent or mixture, in DMSO, read-out: Solubility in DMSO
[5] = mice (BALB/c), observed 7 to 14 days after last dose, AA10 and AA12 in DMSO, AA14 in PBS

IC50 (C6 cells; 96 h): 6.1 µM
Structure (SMILES): CC(O)=C(C#N)C(=S)Nc1ccc(Cl)c(Cl)c1 [Compound 37, 3-hydroxy-3-methyl-2-[(3,4-dichlorophenyl)-aminothiocarbonyl]acrylonitrile]

IC50 (C6 cells; 96 h): 36.7 µM
Structure (SMILES): CC(O)=C(C#N)C(=S)Nc1ccc(F)cc1Br [Compound 7, 3-hydroxy-3-methyl-2-[(2-bromo-4-fluorophenyl)aminothiocarbonyl]acrylonitrile]

IC50 (C6 cells; 96 h): > 20 µM
Structure (SMILES): CC(O)=C(C#N)C(=S)Nc1ccc(S(N)(=O)=O)cc1 [Compound 27, 3-hydroxy-3-methyl-2-[[4-(aminosulfonyl)phenyl]aminothiocarbonyl]acrylonitrile]

IC50 (C6 cells; 96 h): < 1 µM
Structure (SMILES): N#CC(C(=S)Nc1ccc(C(F)(F)F)cc1)=C(O)C1CC1 [Compound 3, 3-cyclopropyl-3-hydroxy-2-[(4-trifluoromethylphenyl)aminothiocarbonyl]acrylonitrile]

IC50 (C6 cells; 96 h): 24.3 µM
Structure (SMILES): CC(O)=C(C#N)C(=S)Nc1ccc(S(=O)(=O)N2CCCCC2)cc1 [Compound 22, 3-hydroxy-3-methyl-2-[[4-(piperidine-1-sulfonyl)-phenyl]aminothiocarbonyl]acrylonitrile]

Structure (SMILES): CC(O)=C(C#N)C(=S)Nc1ccc(C(F)(F)F)cc1 [AA12, 1-Cyano-2-hydroxy-1-(4-trifluoromethylphenyl)aminothiocarbonylpropene]
solubility (Solubility of compounds; [4]): 400 mg/mL (≈ 1400 mM)
LD10 (mice (BALB/c); [5]): 62 mg/kg
LD50 [1, 5]: 79 mg/kg
Inhibition of tumor growth (FIGS. 1, 2, and 3) (C6 glioma cells): inhibit tumor growth
Inhibition of hyper-proliferative cell growth (in words) (C6 cells): able to inhibit hyper-proliferative cell growth
IC50 (C6 cells; 96 h): 0.8 µM

IC50 (C6 cells; 96 h): 35.3 µM
Structure (SMILES): CC(O)=C(C#N)C(=S)Nc1cccc(Cl)c1Cl [Compound 32, 3-hydroxy-3-methyl-2-[(2,3-dichlorophenyl)aminothiocarbonyl]acrylonitrile]

IC50 (C6 cells; 96 h): 15.2 µM
Structure (SMILES): CC(O)=C(C#N)C(=S)Nc1cccc(C(F)(F)F)c1 [Compound 17, 3-hydroxy-3-methyl-2-[[3-(trifluoromethyl)phenyl]aminothiocarbonyl]acrylonitrile]

Structure (SMILES): CC(O)=C(C#N)C(=S)Nc1ccc(C(F)(F)F)cc1.[Na]
Solubility in PBS (in words) (Solubility of compounds; AA14 compared with leflunomide and its hydroxycrotonamide metabolite): soluble in PBS
solubility (Solubility of compounds; aqueous buffer, in PBS (phosphate buffered saline at pH 7.4), read-out: Solubility in PBS): 275 mg/mL
LD10 (mice (BALB/c); mouse, in vivo): 120 mg/kg
LD50 [1]: 145 mg/kg
Tumor inhibition at higher AA14 concentrations (FIG. 4) (C6 glioma cells; 30 mg/kg/day and 50 mg/kg/day in phosphate buffered saline): increased tumor inhibition
Inhibition of tumor growth (FIGS. 1, 2, and 3) (C6 glioma cells): inhibit tumor growth

Structure (SMILES): Cc1oncc1C(=S)Nc1ccc(C(F)(F)F)cc1 [AA10, 5-Methyl-4-(4-trifluoromethylphenyl)aminothiocarbonylisoxazole]
Stability compared with leflunomide [2]: appears to be more stable than leflunomide
Solubility in ethanol compared with leflunomide (Solubility of compounds; in ethanol): more soluble in ethanol
solubility (Solubility of compounds; [4]): ≥ 1000 mg/mL
LD10 (mice (BALB/c); [5]): 77 mg/kg
LD50 [1, 5]: 96 mg/kg
Inhibition of tumor growth (FIGS. 1, 2, and 3) (C6 glioma cells): inhibit tumor growth
Inhibition of hyper-proliferative cell growth (in words) (C6 cells): able to inhibit hyper-proliferative cell growth
IC50 (C6 cells; 96 h): 2 µM

IC50 (C6 cells; 96 h): 31.2 µM
Structure (SMILES): C=C(C)C(O)=C(C#N)C(=S)Nc1ccc(C(F)(F)F)cc1 [Compound 6, 3-hydroxy-3-(propen-2-yl)-2-[[4-(trifluoro-methyl)-phenyl]aminothiocarbonyl]acrylonitrile]

Structure (SMILES): Cc1oncc1C(=O)Nc1ccc(C(F)(F)F)cc1 [leflunomide, 5-methylisoxazole-4 carboxylic acid-(4-trifluromethyl)-anilide, reference compound]
Preventing and curing autoimmune animal diseases [3]: very effective in preventing and curing several autoimmune animal diseases

Structure (SMILES): CC(O)=C(C#N)S(=O)(=O)Nc1ccc(C(F)(F)F)cc1 [AA17, 1-Cyano-2-hydroxy-1-(4-trifluoromethylphenylaminosulfonyl)propene]
IC50 (C6 cells; 96 h): 30 µM

IC50 (C6 cells; 96 h): 53.3 µM
Structure (SMILES): CC(O)=C(C#N)C(=S)Nc1ccc(Cl)cc1Cl [Compound 42, 3-hydroxy-3-methyl-2-[(2,4-dichlorophenyl)aminothiocarbonyl]acrylonitrile]

Structure (SMILES): CC(O)=C(C#N)S(=O)(=O)Nc1ccc(C(F)(F)F)cc1 [AA18, 1-cyano-2-hydroxy-1-(4-trifluoromethylphenylaminosulfonyl)propene sodium salt]
IC50 (C6 cells; C6, 96 h): 24 µM

IC50 (C6 cells; 96 h): > 100 µM
Structure (SMILES): CC(O)=C(C#N)C(=S)Nc1ccccc1C(F)(F)F [Compound 12, 3-hydroxy-3-methyl-2-[[2-(trifluoromethyl)-phenyl]aminothiocarbonyl]acrylonitrile]
